Columns and labels:
Experiment in all cases: cells
TGBC24TKB = format: functional, cell-based; details: Homo sapiens;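 note: growth inhibition of human TGBC24TKB cells, read out with a cell viability assay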
Description: SANGER: Inhibition of human TGBC24TKB cell growth in a cell viability assay.

no-10 = format: functional, cell-based, Homo sapiens; details: Homo sapiens;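 note: growth inhibition of no-10 cells, read out with a cell viability assay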
Description: SANGER: Inhibition of human no-10 cell growth in a cell viability assay.

MHH-NB-11 = format: functional, cell-based, Homo sapiens; details: Homo sapiens, MHH-NB-11;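 note: growth inhibition of human MHH-NB-11 cells, read out by a cell viability assay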
Description: SANGER: Inhibition of human MHH-NB-11 cell growth in a cell viability assay.

ES8 = format: functional, cell-based, Homo sapiens; details: Homo sapiens, ES8;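 note: growth inhibition of human ES8 cells, read out with a cell viability assay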
Description: SANGER: Inhibition of human ES8 cell growth in a cell viability assay.

LB2241-RCC = format: functional, cell-based, Homo sapiens; details: Homo sapiens, LB2241-RCC;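 note: cell viability assay measuring how strongly the cultured human renal carcinoma line is prevented from growing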
Description: SANGER: Inhibition of human LB2241-RCC cell growth in a cell viability assay.

NCI-H1650 = format: functional, cell-based, Homo sapiens; details: Homo sapiens, NCI-H1650;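 note: growth inhibition of human NCI-H1650 cells measured by a cell viability assay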
Description: SANGER: Inhibition of human NCI-H1650 cell growth in a cell viability assay.

GT3TKB = format: functional, cell-based, Homo sapiens; details: Homo sapiens, GT3TKB;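 note: growth inhibition of the cell line, read out with a cell viability assay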
Description: SANGER: Inhibition of human GT3TKB cell growth in a cell viability assay.

8-MG-BA = format: functional, cell-based, Homo sapiens; details: Homo sapiens, 8-MG-BA;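 note: growth inhibition of 8-MG-BA cells, read out with a cell viability assay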
Description: SANGER: Inhibition of human 8-MG-BA cell growth in a cell viability assay.

A253 cell line = format: functional, cell-based, Homo sapiens; details: Homo sapiens, A253;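 note: growth inhibition of A253 cells, read out with a cell viability assay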
Description: SANGER: Inhibition of human A253 cell growth in a cell viability assay.

SJSA-1 = format: functional, cell-based, Homo sapiens; details: Homo sapiens, SJSA-1;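 note: growth inhibition of human SJSA-1 cells, read out through a cell viability measurement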
Description: SANGER: Inhibition of human SJSA-1 cell growth in a cell viability assay.

MLMA = format: functional, cell-based, Homo sapiens; details: Homo sapiens, MLMA;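 note: growth inhibition of MLMA cells (human), determined through a cell viability readout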
Description: SANGER: Inhibition of human MLMA cell growth in a cell viability assay.

TE-11 = format: functional, cell-based; details: Homo sapiens;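 note: growth inhibition of human TE-11 cells, read out by a cell viability assay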
Description: SANGER: Inhibition of human TE-11 cell growth in a cell viability assay.

GB-1 = format: functional, cell-based, Homo sapiens; details: Homo sapiens, GB-1;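 note: growth of GB-1 cells judged by a viability assay, IC50 marks the concentration inhibiting growth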
Description: SANGER: Inhibition of human GB-1 cell growth in a cell viability assay.

COLO-320-HSR = format: functional, cell-based, Homo sapiens; details: Homo sapiens, COLO-320-HSR;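 note: growth inhibition of COLO-320-HSR cells, determined with a cell viability assay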
Description: SANGER: Inhibition of human COLO-320-HSR cell growth in a cell viability assay.

SCC-15 = format: functional, cell-based, Homo sapiens; details: Homo sapiens, SCC-15;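 note: growth inhibition of SCC-15 cells, read out with a cell viability assay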
Description: SANGER: Inhibition of human SCC-15 cell growth in a cell viability assay.

K5 = format: functional, cell-based, Homo sapiens; details: Homo sapiens, K5
Description: SANGER: Inhibition of human K5 cell growth in a cell viability assay.

NMC-G1 = format: functional, cell-based, Homo sapiens; details: Homo sapiens, NMC-G1;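 note: growth inhibition of the NMC-G1 cell line, measured with a cell viability read-out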
Description: SANGER: Inhibition of human NMC-G1 cell growth in a cell viability assay.

KM-H2 = format: functional, cell-based, Homo sapiens; details: Homo sapiens, KM-H2;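 note: growth inhibition of KM-H2 cells, read out by a cell viability assay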
Description: SANGER: Inhibition of human KM-H2 cell growth in a cell viability assay.

DEL = format: functional, cell-based, Homo sapiens; details: Homo sapiens, DEL;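 note: growth inhibition of the human DEL cell line, read out with a cell viability assay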
Description: SANGER: Inhibition of human DEL cell growth in a cell viability assay.

C2BBe1 = format: functional, cell-based, Homo sapiens; details: Homo sapiens, C2BBe1;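 note: growth inhibition of C2BBe1 cells, read out through a viability assay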
Description: SANGER: Inhibition of human C2BBe1 cell growth in a cell viability assay.

TE-9 = format: functional, cell-based, Homo sapiens; details: Homo sapiens, TE-9;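 note: cell growth inhibition, measured with a cell viability readout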
Description: SANGER: Inhibition of human TE-9 cell growth in a cell viability assay.

RS4-11 = format: functional, cell-based, Homo sapiens; details: Homo sapiens, RS4-11;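 note: growth inhibition of RS4-11 cells, read out by a cell viability assay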
Description: SANGER: Inhibition of human RS4-11 cell growth in a cell viability assay.

NCI-H526 = format: functional, cell-based, Homo sapiens; details: Homo sapiens, NCI-H526;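 note: growth inhibition of the human NCI-H526 cell line, measured by a cell viability assay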
Description: SANGER: Inhibition of human NCI-H526 cell growth in a cell viability assay.

DMS-114 = format: functional, cell-based, Homo sapiens; details: Homo sapiens, DMS-114
ES3 = format: functional, cell-based, Homo sapiens; details: Homo sapiens, ES3;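 note: growth inhibition of ES3 cells, read out with a cell viability assay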
Description: SANGER: Inhibition of human ES3 cell growth in a cell viability assay.

D-247MG = format: functional, cell-based; details: Homo sapiens
Description: SANGER: Inhibition of human D-247MG cell growth in a cell viability assay.

LS-123 = format: functional, cell-based, Homo sapiens; details: Homo sapiens, LS-123
Description: SANGER: Inhibition of human LS-123 cell growth in a cell viability assay.

LB1047-RCC = format: functional, cell-based, Homo sapiens; details: Homo sapiens, LB1047-RCC;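 note: inhibition of cell growth, determined with a cell viability assay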
Description: SANGER: Inhibition of human LB1047-RCC cell growth in a cell viability assay.

JAR = format: functional, cell-based, Homo sapiens; details: Homo sapiens, JAR;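 note: growth inhibition of human JAR cells determined with a cell viability assay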
Description: SANGER: Inhibition of human JAR cell growth in a cell viability assay.

MHH-PREB-1 = format: functional, cell-based, Homo sapiens; details: Homo sapiens, MHH-PREB-1;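 note: cell viability assay measuring inhibition of proliferation of human MHH-PREB-1 cells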
Description: SANGER: Inhibition of human MHH-PREB-1 cell growth in a cell viability assay.

DSH1 = format: functional, cell-based; details: Homo sapiens;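 note: growth inhibition of human DSH1 cells, measured with a cell viability readout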
Description: SANGER: Inhibition of human DSH1 cell growth in a cell viability assay.

GCIY = format: functional, cell-based, Homo sapiens; details: Homo sapiens, GCIY;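 note: growth inhibition of the human GCIY cell line, read out by a cell viability assay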
Description: SANGER: Inhibition of human GCIY cell growth in a cell viability assay.

LS-411N = format: functional, cell-based, Homo sapiens; details: Homo sapiens, LS-411N
MC116 = format: functional, cell-based, Homo sapiens; details: Homo sapiens, MC116;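 note: growth inhibition of MC116 cells, read out with a cell viability assay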
Description: SANGER: Inhibition of human MC116 cell growth in a cell viability assay.

A498 = format: functional, cell-based, Homo sapiens; details: Homo sapiens, A498;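 note: growth inhibition of human A498 cells, read out with a cell viability assay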
Description: SANGER: Inhibition of human A498 cell growth in a cell viability assay.

BB65-RCC = format: functional, cell-based, Homo sapiens; details: Homo sapiens, BB65-RCC;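 note: growth inhibition of the cell line, measured with a cell viability assay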
Description: SANGER: Inhibition of human BB65-RCC cell growth in a cell viability assay.

COLO-824 = format: functional, cell-based, Homo sapiens; details: Homo sapiens, COLO-824
Description: SANGER: Inhibition of human COLO-824 cell growth in a cell viability assay.

SW872 = format: functional, cell-based, Homo sapiens; details: Homo sapiens, SW872;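 note: growth inhibition of SW872 cells, read out by a viability assay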
Description: SANGER: Inhibition of human SW872 cell growth in a cell viability assay.

GR-ST = format: functional, cell-based, Homo sapiens; details: Homo sapiens, GR-ST
Description: SANGER: Inhibition of human GR-ST cell growth in a cell viability assay.

HH = format: functional, cell-based, Homo sapiens; details: Homo sapiens, HH
Description: SANGER: Inhibition of human HH cell growth in a cell viability assay.

NB6 = format: functional, cell-based, Homo sapiens; details: Homo sapiens, NB6;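 note: growth inhibition of NB6 cells, read out by a cell viability assay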
Description: SANGER: Inhibition of human NB6 cell growth in a cell viability assay.

COLO-684 = format: functional, cell-based, Homo sapiens; details: Homo sapiens, COLO-684
Description: SANGER: Inhibition of human COLO-684 cell growth in a cell viability assay.

TGW = format: functional, cell-based, Homo sapiens; details: Homo sapiens, TGW;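 note: growth inhibition of human TGW cells, read out with a cell viability assay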
Description: SANGER: Inhibition of human TGW cell growth in a cell viability assay.

BE-13 = format: functional, cell-based, Homo sapiens; details: Homo sapiens, BE-13;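 note: growth inhibition of human BE-13 cells, measured with a cell viability assay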
Description: SANGER: Inhibition of human BE-13 cell growth in a cell viability assay.

HAL-01 = format: functional, cell-based, Homo sapiens; details: Homo sapiens, HAL-01;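 note: growth inhibition of human HAL-01 cells, read out with a cell viability assay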
Description: SANGER: Inhibition of human HAL-01 cell growth in a cell viability assay.

EOL1 = format: functional, cell-based, Homo sapiens; details: Homo sapiens, EOL1;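 note: growth inhibition of EoL-1 cells, read out by a cell viability assay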
Description: SANGER: Inhibition of human EoL-1-cell cell growth in a cell viability assay.

SW982 = format: functional, cell-based; details: Homo sapiens;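 note: growth inhibition of SW982 cells, read out with a cell viability assay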
Description: SANGER: Inhibition of human SW982 cell growth in a cell viability assay.

DB = format: functional, cell-based, Homo sapiens; details: Homo sapiens, DB
Description: SANGER: Inhibition of human DB cell growth in a cell viability assay.

CW-2 = format: functional, cell-based, Homo sapiens; details: Homo sapiens, CW-2;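 note: growth inhibition of CW-2 cells, read out by a cell viability assay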
Description: SANGER: Inhibition of human CW-2 cell growth in a cell viability assay.

BT-474 = format: functional, cell-based, Homo sapiens; details: Homo sapiens, BT-474
Description: SANGER: Inhibition of human BT-474 cell growth in a cell viability assay.

SF-268 = format: functional, cell-based, Homo sapiens; details: Homo sapiens, SF-268;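 note: growth inhibition of SF-268 cells determined with a cell viability assay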
Description: SANGER: Inhibition of human SF268 cell growth in a cell viability assay.

In the case of Cc1ccc(C(=O)Nc2ccc(CN3CCN(C)CC3)c(C(F)(F)F)c2)cc1C#Cc1cnc2cccnn12 [PONATINIB], the IC50 (TGBC24TKB) is reported as over 512 nM, the IC50 (no-10) is reported as over 512 nM and the IC50 (MHH-NB-11) is reported as over 512 nM. For the same compound, the IC50 (ES8) was over 512 nM, the IC50 (LB2241-RCC) was over 512 nM and the IC50 (NCI-H1650) was over 512 nM. For the same compound, the IC50 (GT3TKB) was over 512 nM, the IC50 (8-MG-BA) was over 512 nM and the IC50 (A253 cell line) was over 512 nM. For the same compound, the IC50 (SJSA-1) was over 512 nM, the IC50 (MLMA) was 90.6 nM and the IC50 (TE-11) was over 512 nM. For the same compound, the IC50 (GB-1) was 125 nM, the IC50 (COLO-320-HSR) was over 512 nM and the IC50 (SCC-15) was over 512 nM. For the same compound, the IC50 (K5) was over 512 nM, the IC50 (NMC-G1) was over 512 nM and the IC50 (KM-H2) was over 512 nM. For the same compound, the IC50 (DEL) was over 512 nM, the IC50 (C2BBe1) was over 512 nM and the IC50 (TE-9) was over 512 nM. It also gave an IC50 (RS4-11) of over 512 nM, an IC50 (NCI-H526) of over 512 nM and an IC50 (DMS-114) of over 512 nM. The IC50 (ES3) was over 512 nM, the IC50 (D-247MG) was over 512 nM and the IC50 (LS-123) was over 512 nM. The IC50 (LB1047-RCC) was over 512 nM, the IC50 (JAR) was over 512 nM and the IC50 (MHH-PREB-1) was over 512 nM. For the same compound, the IC50 (DSH1) was over 512 nM, the IC50 (GCIY) was over 512 nM and the IC50 (LS-411N) was over 512 nM. It also gave an IC50 (MC116) of over 512 nM, an IC50 (A498) of over 512 nM and an IC50 (BB65-RCC) of over 512 nM. For the same compound, the IC50 (COLO-824) was over 512 nM, the IC50 (SW872) was over 512 nM and the IC50 (GR-ST) was over 512 nM. It also gave an IC50 (HH) of over 512 nM, an IC50 (NB6) of over 512 nM and an IC50 (COLO-684) of over 512 nM. The IC50 (TGW) was over 512 nM, the IC50 (BE-13) was 2.59 nM and the IC50 (HAL-01) was over 512 nM. It also gave an IC50 (EOL1) of under 2 nM, an IC50 (SW982) of 300 nM and an IC50 (DB) of over 512 nM. For the same compound, the IC50 (CW-2) was over 512 nM, the IC50 (BT-474) was over 512 nM and the IC50 (SF-268) was 449 nM.
For COc1cc(N2CCC(N3CCN(C)CC3)CC2)ccc1Nc1ncc(Cl)c(Nc2ccccc2S(=O)(=O)C(C)C)n1 [TAE-684], the IC50 (TGBC24TKB) was 302 nM, the IC50 (no-10) was over 2000 nM and the IC50 (MHH-NB-11) was over 2000 nM. It also gave an IC50 (ES8) of 750 nM, an IC50 (LB2241-RCC) of 988 nM and an IC50 (NCI-H1650) of over 2000 nM. The IC50 (GT3TKB) was over 2000 nM, the IC50 (8-MG-BA) was over 2000 nM and the IC50 (A253 cell line) was over 2000 nM. For the same compound, the IC50 (SJSA-1) was 637 nM, the IC50 (MLMA) was over 2000 nM and the IC50 (TE-11) was 161 nM. The IC50 (GB-1) was 389 nM, the IC50 (COLO-320-HSR) was 198 nM and the IC50 (SCC-15) was over 2000 nM. The IC50 (K5) was 1060 nM, the IC50 (NMC-G1) was 832 nM and the IC50 (KM-H2) was over 2000 nM. It also gave an IC50 (DEL) of under 7.81 nM, an IC50 (C2BBe1) of 1290 nM and an IC50 (TE-9) of 1110 nM. For the same compound, the IC50 (RS4-11) was over 2000 nM, the IC50 (NCI-H526) was over 2000 nM and the IC50 (DMS-114) was over 2000 nM. It also gave an IC50 (ES3) of over 2000 nM, an IC50 (D-247MG) of over 2000 nM and an IC50 (LS-123) of 1520 nM. It also gave an IC50 (LB1047-RCC) of 545 nM, an IC50 (JAR) of over 2000 nM and an IC50 (MHH-PREB-1) of over 2000 nM. It also gave an IC50 (DSH1) of over 2000 nM, an IC50 (GCIY) of 955 nM and an IC50 (LS-411N) of 675 nM. It also gave an IC50 (MC116) of over 2000 nM, an IC50 (A498) of over 2000 nM and an IC50 (BB65-RCC) of over 2000 nM. It also gave an IC50 (COLO-824) of over 2000 nM, an IC50 (SW872) of 567 nM and an IC50 (GR-ST) of 1390 nM. The IC50 (HH) was over 2000 nM, the IC50 (NB6) was over 2000 nM and the IC50 (COLO-684) was over 2000 nM. It also gave an IC50 (TGW) of 859 nM, an IC50 (BE-13) of over 2000 nM and an IC50 (HAL-01) of 1150 nM. For the same compound, the IC50 (EOL1) was over 2000 nM, the IC50 (SW982) was 165 nM and the IC50 (DB) was over 2000 nM. It also gave an IC50 (CW-2) of over 2000 nM, an IC50 (BT-474) of over 2000 nM and an IC50 (SF-268) of 840 nM.

— ChEMBL document CHEMBL1201861, “Genomics of Drug Sensitity in Cancer screening data, Wellcome Trust Sanger Institute”
